Test results as given in patent publication US11174268B2, “Benzenesulfonamide compouds and their use as therapeutic agents” (Xenon Pharmaceuticals Inc., priority 2016, dated 2021).
Counter-ions that a name gives are not always drawn. Like-named read-outs stand apart in the source and are kept apart here.

Assays:
NaV1.6 [1] = target: T1, NaV1.6 (Homo sapiens (Human), UniProt Q9UQD0); experiment: Electrophysiological Assay (EP), patch voltage clamp, NaV1.6; type: cell-based; details: HEK-293 cells, whole-cell patch clamp;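 also: sodium current recorded at ambient temperature, channels held inactivated then briefly repolarized to −150 mV for 20 ms before a test pulse, control currents in 0.5% DMSO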
T1 sequence (Q9UQD0 whole entry): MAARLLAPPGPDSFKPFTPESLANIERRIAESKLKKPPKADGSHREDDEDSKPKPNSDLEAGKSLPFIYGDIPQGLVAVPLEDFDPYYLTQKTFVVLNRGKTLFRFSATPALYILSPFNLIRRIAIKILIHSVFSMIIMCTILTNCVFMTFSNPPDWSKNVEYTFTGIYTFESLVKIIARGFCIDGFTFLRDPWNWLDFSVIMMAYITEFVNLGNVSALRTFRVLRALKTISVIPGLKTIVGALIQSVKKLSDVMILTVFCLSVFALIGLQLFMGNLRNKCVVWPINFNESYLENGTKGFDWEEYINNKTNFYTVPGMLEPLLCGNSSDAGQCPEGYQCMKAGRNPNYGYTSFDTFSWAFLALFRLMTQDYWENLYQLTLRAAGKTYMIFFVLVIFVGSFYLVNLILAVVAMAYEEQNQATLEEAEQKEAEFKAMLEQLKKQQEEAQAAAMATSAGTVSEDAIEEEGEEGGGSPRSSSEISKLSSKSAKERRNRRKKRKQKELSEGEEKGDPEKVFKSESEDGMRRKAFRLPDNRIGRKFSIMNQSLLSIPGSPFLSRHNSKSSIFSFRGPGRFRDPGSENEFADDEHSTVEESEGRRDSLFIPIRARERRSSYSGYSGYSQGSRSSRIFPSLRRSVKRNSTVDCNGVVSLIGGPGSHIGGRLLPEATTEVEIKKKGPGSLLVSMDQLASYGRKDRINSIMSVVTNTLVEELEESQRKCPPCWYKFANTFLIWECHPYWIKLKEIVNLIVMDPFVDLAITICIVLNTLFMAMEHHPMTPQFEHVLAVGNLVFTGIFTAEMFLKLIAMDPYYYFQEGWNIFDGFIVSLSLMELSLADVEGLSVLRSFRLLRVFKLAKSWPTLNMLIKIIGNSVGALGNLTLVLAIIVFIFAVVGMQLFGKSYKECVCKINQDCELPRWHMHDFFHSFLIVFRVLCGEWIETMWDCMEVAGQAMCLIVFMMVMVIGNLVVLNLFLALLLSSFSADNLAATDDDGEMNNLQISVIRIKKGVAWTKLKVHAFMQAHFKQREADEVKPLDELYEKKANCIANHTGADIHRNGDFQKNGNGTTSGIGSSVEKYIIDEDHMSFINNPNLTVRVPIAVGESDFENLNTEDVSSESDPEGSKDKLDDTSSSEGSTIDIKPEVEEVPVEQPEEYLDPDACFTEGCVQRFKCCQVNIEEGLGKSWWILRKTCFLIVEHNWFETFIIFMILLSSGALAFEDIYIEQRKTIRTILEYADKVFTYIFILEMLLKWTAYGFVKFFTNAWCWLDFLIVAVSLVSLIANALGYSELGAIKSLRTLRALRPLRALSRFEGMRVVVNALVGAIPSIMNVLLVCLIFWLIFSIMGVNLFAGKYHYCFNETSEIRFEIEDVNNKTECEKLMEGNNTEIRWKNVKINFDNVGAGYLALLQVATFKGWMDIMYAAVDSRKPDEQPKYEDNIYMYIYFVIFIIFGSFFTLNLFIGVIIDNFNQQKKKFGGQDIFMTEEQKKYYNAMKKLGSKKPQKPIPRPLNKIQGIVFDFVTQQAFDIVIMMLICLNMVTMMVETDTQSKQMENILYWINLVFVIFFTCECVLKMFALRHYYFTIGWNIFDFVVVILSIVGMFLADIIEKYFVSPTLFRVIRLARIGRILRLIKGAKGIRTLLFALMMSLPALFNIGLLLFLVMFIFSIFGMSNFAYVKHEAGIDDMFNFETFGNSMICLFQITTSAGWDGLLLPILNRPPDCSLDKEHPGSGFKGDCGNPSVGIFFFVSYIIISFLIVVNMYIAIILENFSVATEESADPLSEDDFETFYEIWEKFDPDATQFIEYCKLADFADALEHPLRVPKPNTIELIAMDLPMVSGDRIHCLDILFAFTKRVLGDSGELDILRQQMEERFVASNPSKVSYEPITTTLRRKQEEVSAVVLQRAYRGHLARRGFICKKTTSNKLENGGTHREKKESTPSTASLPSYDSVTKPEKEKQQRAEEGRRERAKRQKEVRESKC

NaV1.1 [2] = target: T2, NaV1.1 (Homo sapiens (Human), UniProt P35498); experiment: Sodium Influx Assay (Flux), NaV1.1; type: cell-based; details: Trex HEK293 cells, ANG2 dye, inactivated state;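 also: channels co-expressed with human β1 subunit and held open by modulators, cells exposed to compounds for one hour at room temperature, IC50 from percent inhibition of influx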
NaV1.6 [3] = target: T1, NaV1.6; experiment: Sodium Influx Assay (Flux), NaV1.6; type: cell-based; details: Trex HEK293 cells, ANG2 dye, inactivated state;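 also: Tetracycline-induced cells, compounds applied for one hour at room temperature with modulators holding channels open, IC50 from percent inhibition of sodium influx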
NaV1.1 [4] = target: T2, NaV1.1; experiment: Electrophysiological Assay (EP), patch voltage clamp, NaV1.1; type: cell-based; details: HEK-293 cells, whole-cell patch clamp;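 also: sodium current block measured at ambient temperature, holding at fully inactivating potential, 20 ms repolarization to −150 mV before test pulse, versus 0.5% DMSO control currents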
NaV1.5 = NaV1.5 (Homo sapiens (Human), UniProt Q14524); experiment: Sodium Influx Assay (Flux), NaV1.5
Chain of NaV1.5 (Q14524 other isoform, or with tags, fused parts or gaps): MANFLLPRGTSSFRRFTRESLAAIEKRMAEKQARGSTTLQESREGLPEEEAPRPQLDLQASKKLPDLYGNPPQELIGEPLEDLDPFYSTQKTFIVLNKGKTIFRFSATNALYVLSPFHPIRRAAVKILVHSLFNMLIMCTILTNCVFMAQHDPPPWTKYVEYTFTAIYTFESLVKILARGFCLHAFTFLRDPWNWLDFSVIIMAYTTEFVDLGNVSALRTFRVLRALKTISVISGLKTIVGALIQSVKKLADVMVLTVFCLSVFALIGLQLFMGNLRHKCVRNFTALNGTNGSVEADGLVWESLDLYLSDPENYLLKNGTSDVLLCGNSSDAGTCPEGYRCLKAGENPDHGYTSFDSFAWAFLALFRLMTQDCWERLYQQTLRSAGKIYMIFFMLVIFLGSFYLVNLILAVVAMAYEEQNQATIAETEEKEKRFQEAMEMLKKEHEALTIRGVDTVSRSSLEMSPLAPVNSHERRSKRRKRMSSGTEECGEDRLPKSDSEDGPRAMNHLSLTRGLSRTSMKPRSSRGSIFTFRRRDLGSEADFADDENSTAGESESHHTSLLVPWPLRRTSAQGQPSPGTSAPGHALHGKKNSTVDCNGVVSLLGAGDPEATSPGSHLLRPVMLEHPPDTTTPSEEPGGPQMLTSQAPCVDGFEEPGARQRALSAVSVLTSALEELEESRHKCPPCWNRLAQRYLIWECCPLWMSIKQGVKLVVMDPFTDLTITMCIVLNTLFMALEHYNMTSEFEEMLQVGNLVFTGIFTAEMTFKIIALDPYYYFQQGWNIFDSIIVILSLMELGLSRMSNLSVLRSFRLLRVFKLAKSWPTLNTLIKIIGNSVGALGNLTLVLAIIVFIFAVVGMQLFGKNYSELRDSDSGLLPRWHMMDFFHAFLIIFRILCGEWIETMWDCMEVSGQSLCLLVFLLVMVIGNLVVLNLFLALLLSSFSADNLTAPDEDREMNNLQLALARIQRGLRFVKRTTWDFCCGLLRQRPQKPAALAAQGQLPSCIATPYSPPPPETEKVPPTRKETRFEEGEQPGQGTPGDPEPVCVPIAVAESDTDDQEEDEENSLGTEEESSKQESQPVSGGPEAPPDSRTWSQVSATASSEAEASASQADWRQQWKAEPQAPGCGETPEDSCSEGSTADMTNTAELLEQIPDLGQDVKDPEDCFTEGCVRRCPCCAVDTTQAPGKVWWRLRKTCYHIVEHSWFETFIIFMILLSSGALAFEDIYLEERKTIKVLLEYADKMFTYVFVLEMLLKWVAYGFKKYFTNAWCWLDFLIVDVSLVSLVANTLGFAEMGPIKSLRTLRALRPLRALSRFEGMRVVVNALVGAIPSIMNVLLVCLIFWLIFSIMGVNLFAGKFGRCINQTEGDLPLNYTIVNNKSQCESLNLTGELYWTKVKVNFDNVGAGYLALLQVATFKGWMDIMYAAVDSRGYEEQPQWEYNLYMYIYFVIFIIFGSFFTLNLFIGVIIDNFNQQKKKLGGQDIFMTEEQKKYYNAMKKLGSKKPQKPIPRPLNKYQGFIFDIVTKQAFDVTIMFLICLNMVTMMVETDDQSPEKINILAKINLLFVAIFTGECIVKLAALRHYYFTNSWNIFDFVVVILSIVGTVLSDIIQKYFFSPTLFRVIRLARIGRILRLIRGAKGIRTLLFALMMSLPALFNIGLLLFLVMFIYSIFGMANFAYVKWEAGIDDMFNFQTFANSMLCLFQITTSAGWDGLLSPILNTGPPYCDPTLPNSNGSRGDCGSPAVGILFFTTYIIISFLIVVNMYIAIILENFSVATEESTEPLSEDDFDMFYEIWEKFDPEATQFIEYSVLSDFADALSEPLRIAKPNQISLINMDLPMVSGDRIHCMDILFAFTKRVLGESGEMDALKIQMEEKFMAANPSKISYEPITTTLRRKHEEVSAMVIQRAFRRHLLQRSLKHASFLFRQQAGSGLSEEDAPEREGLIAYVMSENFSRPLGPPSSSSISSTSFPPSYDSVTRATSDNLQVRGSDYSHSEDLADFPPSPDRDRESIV

[5] = read-out: Flux NaV1.5 IC50, Trex HEK293 cells, ANG2 dye, inactivated state

Compound | IC50 (NaV1.6 [1]) | IC50 (NaV1.1 [2]) | IC50 (NaV1.6 [3]) | IC50 (NaV1.1 [4]) | IC50 (NaV1.5; [5]) | IC50 (NaV1.5)
O=S(=O)(Nc1cccc(F)n1)c1cc(Cl)c(NCc2c(F)ccc(F)c2CN2CCC2)cc1F [Example 131, 4-((2-(azetidin-1-ylmethyl)-3,6-difluorobenzyl)amino)-5-chloro-2-fluoro-N-(6-fluoropyridin-2-yl)benzenesulfonamide] | 0.126 µM | 8.33 µM | 0.376 µM | 10 µM | 10.9 µM | 
O=S(=O)(Nc1cscn1)c1ccc(NCc2c(F)cccc2CN2CC(F)C2)c(Cl)c1F [Example 133, 3-chloro-2-fluoro-4-((2-fluoro-6-((3-fluoroazetidin-1-yl)methyl)benzyl)amino)-N-(thiazol-4-yl)benzenesulfonamide] | 0.122 µM | 6.36 µM | 0.418 µM | 10 µM | 9.21 µM | 
O=S(=O)(Nc1nccs1)c1cc(Cl)c(OCc2ccccc2CN2CCC2)cc1F [Example 136, 4-((2-(azetidin-1-ylmethyl)benzyl)oxy)-5-chloro-2-fluoro-N-(thiazol-2-yl)benzenesulfonamide] | 0.041 µM | 19.6 µM | 0.384 µM | 10 µM | 23.7 µM | 
Cc1cc(S(=O)(=O)Nc2cscn2)c(F)cc1NCc1c(F)cccc1CN1CC(F)C1 [Example 137, 2-fluoro-4-((2-fluoro-6-((3-fluoroazetidin-1-yl)methyl)benzyl)amino)-5-methyl-N-(thiazol-4-yl)benzenesulfonamide] | 0.353 µM | 30 µM | 0.588 µM | 10 µM | 30 µM | 
O=S(=O)(Nc1cccc(F)n1)c1cc(Cl)c(NCc2c(F)cccc2CN2CCC2)cc1F [Example 138, 4-((2-(azetidin-1-ylmethyl)-6-fluorobenzyl)amino)-5-chloro-2-fluoro-N-(6-fluoropyridin-2-yl)benzenesulfonamide] | 0.043 µM | 5.76 µM | 0.151 µM | 10 µM | 9.85 µM | 
CCC(Nc1cc(F)c(S(=O)(=O)Nc2nccs2)cc1Cl)c1ccccc1 (centres unmarked) [Example 141, 5-chloro-2-fluoro-4-(1-phenylpropylamino)-N-(thiazol-2-yl)benzenesulfonamide] | 0.031 µM | 3.33 µM | 0.479 µM | 0.277 µM |  | 21 µM
CC(C)CC(Nc1cc(F)c(S(=O)(=O)Nc2nccs2)cc1Cl)c1ccccc1 (centres unmarked) [Example 143, 5-chloro-2-fluoro-4-(3-methyl-1-phenylbutylamino)-N-(thiazol-2-yl)benzenesulfonamide] | 0.027 µM | 2.49 µM | 0.528 µM | 0.159 µM |  | 7.01 µM
O=S(=O)(Nc1cscn1)c1c(F)cc(NCc2c(F)cccc2CN2CC3(CCO3)C2)cc1F [Example 156, 4-((2-((1-oxa-6-azaspiro[3.3]heptan-6-yl)methyl)-6-fluorobenzyl)amino)-2,6-difluoro-N-(thiazol-4-yl)benzenesulfonamide formate] | 0.022 µM | 24.8 µM | 0.146 µM | 10 µM | 30 µM | 
C[C@H](Nc1ccc(S(=O)(=O)Nc2ccncn2)c(F)c1Cl)c1ccccc1Cl [Example 191, (S)-3-chloro-4-((1-(2-chlorophenyl)ethyl)amino)-2-fluoro-N-(pyrimidin-4-yl)benzenesulfonamide] | 0.112 µM | 18.2 µM | 0.244 µM | 10 µM | 20 µM | 
O=S(=O)(Nc1cscn1)c1ccc(NCc2c(F)cccc2CN2CCC2)c(Cl)c1F [Example 192, 4-((2-(azetidin-1-ylmethyl)-6-fluorobenzyl)amino)-3-chloro-2-fluoro-N-(thiazol-4-yl)benzenesulfonamide formate] | 0.015 µM | 16.2 µM | 0.072 µM | 10 µM | 8.51 µM | 
O=S(=O)(Nc1cscn1)c1c(F)cc(NCc2c(F)cccc2CN2CC(F)C2)cc1F [Example 194, 2,6-difluoro-4-((2-fluoro-6-((3-fluoroazetidin-1-yl)methyl)benzyl)amino)-N-(thiazol-4-yl)benzenesulfonamide formate] | 0.043 µM | 8.54 µM | 0.227 µM | 10 µM | 30 µM | 
C[C@H](Nc1cc(F)c(S(=O)(=O)Nc2ccncn2)c(F)c1)c1cc(Cl)ccc1F [Example 206, (S)-4-((1-(5-chloro-2-fluorophenyl)ethyl)amino)-2,6-difluoro-N-(pyrimidin-4-yl)benzenesulfonamide 2,2,2-trifluoroacetate] | 0.076 µM | 7.05 µM | 0.448 µM | 10 µM | 30 µM | 
C[C@H](Nc1cc(F)c(S(=O)(=O)Nc2cscn2)c(F)c1)c1cc(Cl)ccc1F [Example 207, (S)-4-((1-(5-chloro-2-fluorophenyl)ethyl)amino)-2,6-difluoro-N-(thiazol-4-yl)benzenesulfonamide 2,2,2-trifluoroacetate] | 0.121 µM | 4.38 µM | 0.413 µM | 8.13 µM | 9.57 µM | 
COc1cccc(CN2CCC2)c1CNc1cc(F)c(S(=O)(=O)Nc2cscn2)c(F)c1 [Example 209, 4-((2-(azetidin-1-ylmethyl)-6-methoxybenzyl)amino)-2,6-difluoro-N-(thiazol-4-yl)benzenesulfonamide 2,2,2-trifluoroacetate] | 0.076 µM | 27.3 µM | 0.317 µM | 10 µM | 30 µM | 
O=S(=O)(Nc1cscn1)c1cc(Cl)c(NC2(c3cc(F)ccc3F)CC2)cc1F [Example 225, 5-chloro-4-((1-(2,5-difluorophenyl)cyclopropyl)amino)-2-fluoro-N-(thiazol-4-yl)benzenesulfonamide] | 0.742 µM | 9.82 µM | 2 µM | 10 µM | 4.47 µM | 
C[C@H](Nc1cc(F)c(S(=O)(=O)Nc2cnccn2)cc1Cl)c1cc(Cl)ccc1F [Example 243] | 6.25 µM | ≥ 30 µM | 8.68 µM | 10 µM |  | ≥ 30 µM
O=S(=O)(Nc1cscn1)c1cc(Cl)c(NCc2c(F)cccc2CN2CC(F)C2)cc1F [Example 247, 5-chloro-2-fluoro-4-((2-fluoro-6-((3-fluoroazetidin-1-yl)methyl)benzyl)amino)-N-(thiazol-4-yl)benzenesulfonamide] | 0.409 µM | 25.3 µM | 6.16 µM | 10 µM | 30 µM | 
CC[C@H](Nc1cc(F)c(S(=O)(=O)Nc2ncc(F)s2)cc1Cl)c1ccccc1 [Example 265, (S)-5-chloro-2-fluoro-N-(5-fluorothiazol-2-yl)-4-((1-phenylpropyl)amino)benzenesulfonamide] | 0.018 µM | 0.794 µM | 0.194 µM | 0.05 µM | 12.5 µM | 
C[C@H](Nc1cc(F)c(S(=O)(=O)Nc2ncc(F)s2)cc1Cl)c1ccccc1F [Example 266, (S)-5-chloro-2-fluoro-4-((1-(2-fluorophenyl)ethyl)amino)-N-(5-fluorothiazol-2-yl)benzenesulfonamide] | 0.015 µM | 0.767 µM | 0.117 µM | 0.133 µM | 5.44 µM | 
